According to paper PMC12843137, “Fine-Tuning Side Chain Substitutions: Impacts on the Lipophilicity–Solubility–Permeability Interplay in Macrocyclic Peptides” (Marine Drugs, 2025):

System: PATU8988T cells
Assay: CCK-8 antiproliferative assay, PATU8988T
Format: cell-based
Conditions: Homo sapiens, PaTu 8988t; CCK-8, 72 h, mean ± SEM (n = 3); read-out: Cell proliferation IC50 PATU8988T
Procedure: (§1) The inhibitory activities against human pancreatic cancer PANC-1 cells of the synthesized compounds were evaluated by CCK-8 assay.
(§2) Human pancreatic cancer cell lines PANC-1, PATU8988T and BxPC3 were purchased from the Cancer Institute & Hospital of the Chinese Academy of Medical Sciences (Shanghai, China). All three cell lines were cultured in RPMI-DMEM medium containing 10% fetal bovine serum, cultured at a constant temperature of 37 °C in a humidified incubator with 5% CO2.
(§3) Pancreatic cancer cells are seeded into 96-well plates. After a proliferation time of 16 h, different concentrations of compounds are added into the corresponding wells and incubated for 72 h. 10 μL of CCK-8 solution is added into each well and incubated for 1–4 h at 37 °C. Shake the plates and read the OD value of each well at 450 nm on a microplate reader.
(§4) 1. Characterization of biological activity
(§5) Supplementary Figure S1. Cell viability is assessed using the CCK -8 assay following 72 h treatment with the tested compounds in pancreatic cancer cell lines: a) PATU8988T, b) BxPC3.
(§6) Supplementary Table S1. The effects of compounds against two pancreatic cancer cell lines were evaluated using […]
(§7) Cell proliferation IC 50(µM)a
(§8) [a] IC50 va lues of the tested compounds ar e determined in PATU8988T an d BxPC3 cells. […]
(§9) Supplementary Figure S2. Convergence of the PMF calculated from WTM -eABF simulation . […]

| Compound | IC50 |
| --- | --- |
| CCCCOc1ccc(-c2ccc(-c3ccc(Cn4cc(CCCCC[C@H]5OC(=O)CN(C)C(=O)/C=C/[C@@H](CN6CCN(C)CC6)NC(=O)CNC(=O)[C@@](C)(O)C(=O)[C@H]5C)nn4)cc3)cc2)cc1 [Compound 29] | > 50 µM |
| CC1C(=O)C(C)(O)C(=O)NCC(=O)NC(CN2CCN(C)CC2)C=CC(=O)N(C)CC(=O)OC1CCCCc1cn(CCCCCCCCNC(=N)N)nn1 (centres unmarked) [Compound 31] | > 50 µM |

System: BxPC3 cells
Assay: CCK-8 antiproliferative assay, BxPC3
Format: cell-based
Conditions: Homo sapiens, BXPC-3, 72 h, CCK-8, 72 h, mean ± SEM (n = 3); read-out: Cell proliferation IC50 BxPC3
Procedure: as §1, §2, §3, §4, §5, §6, §7, §8, §9

| IC50 | Compound |
| --- | --- |
| > 50 µM | CCCCOc1ccc(-c2ccc(-c3ccc(Cn4cc(CCCCC[C@H]5OC(=O)CN(C)C(=O)/C=C/[C@@H](CN6CCN(C)CC6)NC(=O)CNC(=O)[C@@](C)(O)C(=O)[C@H]5C)nn4)cc3)cc2)cc1 [Compound 29] |
| > 100 µM | CC1C(=O)C(C)(O)C(=O)NCC(=O)NC(CN2CCN(C)CC2)C=CC(=O)N(C)CC(=O)OC1CCCCc1cn(CCCCCCCCNC(=N)N)nn1 (centres unmarked) [Compound 31] |

System: not listed separately
Assay: Caco-2 cell permeability study
Format: in vitro ADME
Conditions: human, Caco-2, pH 7.4
Text: One of the physicochemical quantities that mirrors the interaction of a compound with the cell membrane is permeability. Traditionally, measuring permeability with the PAMPA model provides estimates of passive permeability across a model membrane. […] Therefore, we measure the cell permeability of the six compounds using Caco-2 cells, so that the apical to basolateral (A to B) and basolateral to apical (B to A) permeabilities, and thereby the efflux ratio, can be determined. Three commercial drugs (Table 2) are used as standard compounds to establish and validate our in-house assay.
For Caco-2 cells (originally obtained from the American Type Culture Collection; ATCC, Manassas, VA, USA), 50 μL and […] of cell culture medium are added to each well of the Transwell insert and reservoir, respectively. And then the HTS transwell plates are incubated at 37 °C, 5% CO2 for 1 h before cell seeding. Caco-2 cells are diluted to 6.86 × 10^5 cells/mL with culture medium and 50 μL of cell suspension is dispensed into the filter well of the 96-well HTS Transwell plate. Cells are cultivated for 14–18 days in a cell culture incubator at 37 °C, 5% CO2, 95% relative humidity. Cell culture medium is replaced every other day, beginning no later than 24 h after initial plating. Stock solutions of the test compounds are prepared at a concentration of 10 mM in DMSO. […] Detailed assay procedures are provided in the SI. […]
dilution factor is changed according to the log D value and the LC-MS signal response. The samples are evaluated by LC-MS/MS analysis. All experiments are performed in duplicates.
5. Caco-2 Cell Permeability Assay
The Caco-2 plate is removed from the incubator and washed twice with pre-warmed HBSS (10 mM HEPES, pH 7.4), and then incubated at 37 °C for 30 minutes. The stock solutions of control compounds and test compounds are diluted in DMSO to get 1 mM solutions and then diluted with HBSS (10 mM HEPES, pH 7.4) get 5 μM working solutions. The final concentration of DMSO in the incubation system is 0.5%. To determine the rate of drug transport in the apical to basolateral direction. 125 μL of 5 μM working solution of control compounds and test compounds are added to the Transwell insert (apical compartment), and transfer 50 μL sample (D0 sample) immediately from the apical compartment to a new 96-well plate. Fill the wells in the receiver plate (basolateral compartment) with 235 μL of HBSS (10 mM HEPES, pH 7.4). To determine the rate of drug transport in the basolateral to apical direction. 285 μL of 5 μM working solution of control compounds and test compounds are to the receiver plate wells (basolateral compartment), and transfer 50 μL sample (D0 sample) immediately from the basolateral compartment to a new 96-well plate.
Fill the wells in the Transwell insert (apical compartment) with 75 μL of HBSS (10 mM HEPES, pH 7.4).
The assay is performed in duplicate. The plates are incubated at 37 °C for 2 h. At the end of the incubation, 50 μL samples from donor sides (apical compartment for Ap→Bl flux, and basolateral compartment for Bl→Ap) and receiver sides (basolateral compartment for Ap→Bl flux, and apical compartment for Bl→Ap) are transferred to wells of a new 96-well plate, followed by the addition of 4 volume of cold acetonitrile containing appropriate internal standards (IS). Samples are Vortexed for 5 minutes and then centrifuged at 3,220 g for 30 minutes. An aliquot of 100 µL of the supernatant is mixed with an appropriate volume of ultra-pure water before LC-MS/MS analysis (see SI Bioanalytical Method for Caco-2 Cell Permeability […]
Papp (A to B) is greater than the Papp (A to B) of minoxidil it is assigned as high permeability. If the Papp (A to B) is […]

| efflux ratio at 2 h, 5 µM | Compound |
| --- | --- |
| > 65.3 | CCCCCCCCCCCCCC1OC(=O)CN(C)C(=O)C=CC(CN2CCN(C)CC2)NC(=O)CNC(=O)C(C)(O)C(=O)C1C (centres unmarked) [BE-NMP] |
| 2.57 | CC1C(=O)C(C)(O)C(=O)NCC(=O)NC(CN2CCN(C)CC2)C=CC(=O)N(C)CC(=O)OC1CCCCc1cn(CCCCCCCCNC(=N)N)nn1 (centres unmarked) [Compound 31] |
| > 10.8 | C[C@@H]1C(=O)[C@](C)(O)C(=O)NCC(=O)N[C@H](CN2CCN(C)CC2)/C=C/C(=O)N(C)CC(=O)O[C@H]1CCCCCc1cn(CCCCCCCNc2cccc3c2CN(C2CCC(=O)NC2=O)C3=O)nn1 (some centres unmarked) [Compound 40] |

Same assay, conditions: human, Caco-2, pH 7.4, Caco-2, 5 μM; read-out: Mean % Solution Recovery A to B

| recovery at 2 h, 5 μM | Compound |
| --- | --- |
| < 23.5% | CCCCCCCCCCCCCC1OC(=O)CN(C)C(=O)C=CC(CN2CCN(C)CC2)NC(=O)CNC(=O)C(C)(O)C(=O)C1C (centres unmarked) [BE-NMP] |
| < 92.9% | CCCCOc1ccc(-c2ccc(-c3ccc(Cn4cc(CCCCC[C@H]5OC(=O)CN(C)C(=O)/C=C/[C@@H](CN6CCN(C)CC6)NC(=O)CNC(=O)[C@@](C)(O)C(=O)[C@H]5C)nn4)cc3)cc2)cc1 [Compound 29] |
| 109% | CC1C(=O)C(C)(O)C(=O)NCC(=O)NC(CN2CCN(C)CC2)C=CC(=O)N(C)CC(=O)OC1CCCCc1cn(CCCCCCCCNC(=N)N)nn1 (centres unmarked) [Compound 31] |
| < 89.4% | C[C@@H]1C(=O)[C@](C)(O)C(=O)NCC(=O)N[C@H](CN2CCN(C)CC2)/C=C/C(=O)N(C)CC(=O)O[C@H]1CCCCCc1cn(CCCCCCCNc2cccc3c2CN(C2CCC(=O)NC2=O)C3=O)nn1 (some centres unmarked) [Compound 40] |

Same assay, conditions: human, Caco-2, pH 7.4, Caco-2, 5 μM; read-out: Mean % Solution Recovery B to A

| recovery at 2 h, 5 μM | Compound |
| --- | --- |
| 8.99% | CCCCCCCCCCCCCC1OC(=O)CN(C)C(=O)C=CC(CN2CCN(C)CC2)NC(=O)CNC(=O)C(C)(O)C(=O)C1C (centres unmarked) [BE-NMP] |
| < 71.1% | CCCCOc1ccc(-c2ccc(-c3ccc(Cn4cc(CCCCC[C@H]5OC(=O)CN(C)C(=O)/C=C/[C@@H](CN6CCN(C)CC6)NC(=O)CNC(=O)[C@@](C)(O)C(=O)[C@H]5C)nn4)cc3)cc2)cc1 [Compound 29] |
| 70.4% | CC1C(=O)C(C)(O)C(=O)NCC(=O)NC(CN2CCN(C)CC2)C=CC(=O)N(C)CC(=O)OC1CCCCc1cn(CCCCCCCCNC(=N)N)nn1 (centres unmarked) [Compound 31] |
| 50.4% | C[C@@H]1C(=O)[C@](C)(O)C(=O)NCC(=O)N[C@H](CN2CCN(C)CC2)/C=C/C(=O)N(C)CC(=O)O[C@H]1CCCCCc1cn(CCCCCCCNc2cccc3c2CN(C2CCC(=O)NC2=O)C3=O)nn1 (some centres unmarked) [Compound 40] |

Same assay, conditions: human, pH 7.4; Caco-2, 5 μM, 2 h, apical to basolateral

| Papp A→B at 2 h, 5 µM | Compound |
| --- | --- |
| < 0.0144 ×10⁻⁶ cm/s | CCCCCCCCCCCCCC1OC(=O)CN(C)C(=O)C=CC(CN2CCN(C)CC2)NC(=O)CNC(=O)C(C)(O)C(=O)C1C (centres unmarked) [BE-NMP] |
| < 0.00798 ×10⁻⁶ cm/s | CCCCOc1ccc(-c2ccc(-c3ccc(Cn4cc(CCCCC[C@H]5OC(=O)CN(C)C(=O)/C=C/[C@@H](CN6CCN(C)CC6)NC(=O)CNC(=O)[C@@](C)(O)C(=O)[C@H]5C)nn4)cc3)cc2)cc1 [Compound 29] |
| 0.0348 ×10⁻⁶ cm/s | CC1C(=O)C(C)(O)C(=O)NCC(=O)NC(CN2CCN(C)CC2)C=CC(=O)N(C)CC(=O)OC1CCCCc1cn(CCCCCCCCNC(=N)N)nn1 (centres unmarked) [Compound 31] |
| < 0.0116 ×10⁻⁶ cm/s | C[C@@H]1C(=O)[C@](C)(O)C(=O)NCC(=O)N[C@H](CN2CCN(C)CC2)/C=C/C(=O)N(C)CC(=O)O[C@H]1CCCCCc1cn(CCCCCCCNc2cccc3c2CN(C2CCC(=O)NC2=O)C3=O)nn1 (some centres unmarked) [Compound 40] |

Same assay, conditions: human, pH 7.4; Caco-2, 5 μM, 2 h, basolateral to apical

| Papp B→A at 2 h, 5 µM | Compound |
| --- | --- |
| 0.942 ×10⁻⁶ cm/s | CCCCCCCCCCCCCC1OC(=O)CN(C)C(=O)C=CC(CN2CCN(C)CC2)NC(=O)CNC(=O)C(C)(O)C(=O)C1C (centres unmarked) [BE-NMP] |
| < 0.00266 ×10⁻⁶ cm/s | CCCCOc1ccc(-c2ccc(-c3ccc(Cn4cc(CCCCC[C@H]5OC(=O)CN(C)C(=O)/C=C/[C@@H](CN6CCN(C)CC6)NC(=O)CNC(=O)[C@@](C)(O)C(=O)[C@H]5C)nn4)cc3)cc2)cc1 [Compound 29] |
| 0.0894 ×10⁻⁶ cm/s | CC1C(=O)C(C)(O)C(=O)NCC(=O)NC(CN2CCN(C)CC2)C=CC(=O)N(C)CC(=O)OC1CCCCc1cn(CCCCCCCCNC(=N)N)nn1 (centres unmarked) [Compound 31] |
| 0.13 ×10⁻⁶ cm/s | C[C@@H]1C(=O)[C@](C)(O)C(=O)NCC(=O)N[C@H](CN2CCN(C)CC2)/C=C/C(=O)N(C)CC(=O)O[C@H]1CCCCCc1cn(CCCCCCCNc2cccc3c2CN(C2CCC(=O)NC2=O)C3=O)nn1 (some centres unmarked) [Compound 40] |
